Measured values published in patent US20230203058A1, “MACROCYCLIC DIAMINE DERIVATIVES AS ENT INHIBITORS FOR THE TREATMENT OF CANCERS, AND COMBINATION THEREOF WITH ADENOSINE RECEPTOR ANTAGONISTS” (ITEOS BELGIUM SA, priority 2020, published 2023).
Like-named read-outs stand apart in the source and are kept apart here.

Key:
human T cells = assay: T cell stimulation assay (Example III, FIG. 1); type: cell-based; settings: ATP 100 µM
Experimental: FIG. 1A depicts a graph of log concentration (M) versus percent proliferation. Purified human T cells were activated with anti-CD3/CD28 dynabeads in the presence of ATP (100 µM) as a source of adenosine for 96 h and then proliferation was assessed by CFSE dilution.
FIG. 1B depicts a graph of log concentration of ENT1 inhibitor (M) versus percent proliferation. Experiment performed as in FIG. A with the addition of HSA and AAG to the culture medium (final concentration 2 and 0.1%, respectively).
Peripheral blood mononuclear cells (PBMCs) were first isolated via centrifugation of fresh whole blood over Lymphoprep using SepMate-50 tubes (both from […] Technologies) according to the manufacturer’s instructions. Human T cells were then isolated from the PBMCs using the EasySep Human T cell Isolation Kit ([…] Technologies) according to the manufacturer’s instructions and the cells were cryopreserved in FBS with 10% DMSO until required.
Cryopreserved human T cells were thawed on the day of the experiment and resuspended in PBS with 10% FBS at approximately 1 × 10^7 cells/ml. This cell suspension was diluted 1:1 with 2 µM CFSE solution (ThermoFisher Scientific) in PBS and incubated for 5 minutes at room temperature. The labelling reaction was quenched by further addition of PBS with 10% FBS, and then the cells were washed into X-VIVO15 medium (Lonza) for use in the T cell assay.
CFSE-labelled T cells were plated at 2 × 10^4 cells per well in 384 well plates in the presence of ATP (100 µM, Sigma-Aldrich) as a source of adenosine. Activation was driven by the addition of Dynabeads Human T-Activator CD3/CD28 (ThermoFisher Scientific) at a ratio of 0,5 beads per T cell. ENT1 inhibitor molecules including the reference molecule dilazep (Tocris Bioscience) were added, the volume of the wells was adjusted to 50 µl with X-VIVO15 medium and the plates were cultured in a humidified incubator for 96 h at 37° C. with 5% CO2. In some experiments the culture was supplemented with human serum albumin (HSA) and alpha-1-acid glycoprotein (AAG, both Sigma-Aldrich) at final concentrations of 2 and 0,1%, respectively.
Analysis of proliferation via CSFE dilution was performed by flow cytometry using a BD LSR Fortessa with data analysis on FlowJo (BD Biosciences).

[1] = tested on: naive CD4+ T cells cultured with allogeneic monocyte-derived dendritic cells; assay: Mixed leukocyte reaction assay (FIG. 2); type: cell-based, human; settings: 300 µM ATP; for Rescue of proliferation of naive CD4 T cells in MLR / IFNγ production in MLR: Compound 2 50 nM; for Rescue of proliferation of naive CD4 T cells in MLR: Compound 11 500 nM; for IFNγ production in MLR: Compound 11 500 nM (FIG. 2B)
Experimental: FIG. 2A depicts a bar graph of percent proliferation normalized to no ATP. Naive CD4^+ T cells were cultured with allogeneic monocyte-derived dendritic cells at a ratio of 10:1 for 96 h in the presence of 300 µM ATP as a source of adenosine and the molecules Compound 2 (50 nM), Compound 11 (500 nM) or concentration-matched DMSO. Proliferation of T cells was assessed by CFSE dilution and normalized to the level observed in T cells activated in the absence of ATP.
FIG. 2B depicts two bar graphs, one showing TNF concentration (pg/mL), and the other showing IFNy (pg/mL). Experiment performed as described in FIG. 2A and supernatant sampled for analysis of cytokines by alphaLISA. **** = p < 0.0001; *** = p < 0.001; ** = p < 0.01 and * = p < 0.05; derived from one-way ANOVA with Tukey’s multiple comparisons test.
PBMCs were isolated from buffy coats via centrifugation of fresh whole blood over Lymphoprep using SepMate-50 tubes (both from […] Technologies) according to the manufacturer’s instructions. Naive CD4^+ T cells were isolated from the PBMCs using the Naive CD4^+ T cell Isolation Kit II, human (Miltenyi Biotec) according to the manufacturer’s instructions and cryopreserved in FBS with 10% DMSO until required. CD14^+ monocytes were also isolated from the PBMC samples using CD14 MicroBeads, human (MiltenyiBiotec) according to the manufacturer’s instructions and used on the day of isolation.
Monocytes were resuspended in RPMI (Lonza) with 10% FBS and cultured in a humidified incubator at 37° C. with 5% CO2 for 6 days in the presence of GM-CSF and IL-4 (R&D Systems), each at 50 ng/ml in 24 well plates. On day 3 of culture half of the medium was carefully removed and replaced with fresh medium containing 100 ng/ml of GM-CSF and IL-4.
On day 6 of culture monocyte-derived dendritic cells (MoDCs) were harvested and washed into X-VIVO15 medium containing 5% human male AB serum (Biowest) and 1 mM sodium pyruvate (Lonza). Naive CD4^+ T cells from a different donor were thawed and CFSE-labelled as described above and washed into the same medium as the MoDCs. Finally, 1 × 10^4 MoDCs were cultured with 1 × 10^5 naive CD4^+ T cells in the presence of ATP (Sigma-Aldrich), uridine or uracil in 96 round well bottom plates for 72 h in a humidified incubator at 37° C. with 5% CO2.
Analysis of proliferation of CD4 T cells via CSFE dilution was performed by flow cytometry using a BD LSR Fortessa with data analysis on FlowJo (BD Biosciences). Cytokines were analysed by alphaLISA (Perkin Elmer) according to the manufacturer’s instructions.

[2] = anti-CD3/CD28 dynabeads, 96 h (FIG. 1A), read-out: IC50 of restoration of T cell proliferation
[3] = with HSA 2% and AAG 0,1% (FIG. 1B), read-out: IC50 of restoration of T cell proliferation under high protein binding conditions

Compound | IC50 (human T cells; [2]) | IC50 (human T cells; [3]) | Production of TNF in MLR ([1]; Compound 2 50 nM (FIG. 2B)) | Rescue of proliferation of naive CD4 T cells in MLR [1] | IFNγ production in MLR [1]
COc1cc(C(=O)O[C@H]2CCCOc3cc(cc(OC)c3OC)C(=O)OCCCN3CCCN(CC2)CC3)cc(OC)c1OC [Compound 2, (12S)-74,75-dimethoxy-6-oxo-5,8-dioxa-1(1,4)-diazepana-7(1,3)-benzenacyclotetradecaphane-12-yl 3,4,5-trimethoxybenzoate] | 0.3 nM | 2 nM | clear restoration with Compound 2, even beyond the control level | near complete rescue | significant and consistent increase
COc1cc(C(=O)OC2CCCOc3cc(cc(OC)c3OC)C(=O)N(C)CCCN3CCCN(CC2)CC3)cc(OC)c1OC (stereo not drawn) [Compound 11, 74,75-dimethoxy-5-methyl-6-oxo-8-oxa-5-aza-1(1,4)-diazepana-7(1,3)-benzenacyclotetradecaphane-12-yl 3,4,5-trimethoxybenzoate] | 7 nM | 125 nM | – | weaker restoration | smaller effect
